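Grown in 96-well plates, cells were treated for 48 hours with each compound at five concentrations. Insufficient inhibition: endpoint recorded as highest concentration tested. TGI marks complete inhibition of growth.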
Tests used:
Experiment in all cases: growth of human tumour cells (NCI), 48 h
UACC-62 melanoma = system: UACC-62 melanoma
U251 CNS = system: U251 CNS
NCI-H522 lung = system: NCI-H522 lung
MCF7 breast = system: MCF7 breast
HL-60(TB) leukemia = system: HL-60(TB) leukemia
SN12C renal = system: SN12C renal
OVCAR-8 ovarian = system: OVCAR-8 ovarian
SR leukemia = system: SR leukemia
UO-31 renal = system: UO-31 renal
HOP-92 NSCLC = system: HOP-92 NSCLC
SK-MEL-5 melanoma = system: SK-MEL-5 melanoma
CCRF-CEM leukemia = system: CCRF-CEM leukemia
MDA-N = system: MDA-N
SNB-75 CNS = system: SNB-75 CNS
TK-10 renal = system: TK-10 renal
RPMI-8226 leukemia = system: RPMI-8226 leukemia
SF-539 CNS = system: SF-539 CNS
HS 578T breast = system: HS 578T breast
COLO 205 colon = system: COLO 205 colon
MDA-MB-435 = system: MDA-MB-435
K-562 leukemia = system: K-562 leukemia
PC-3 prostate = system: PC-3 prostate
OVCAR-3 ovarian = system: OVCAR-3 ovarian
MALME-3M melanoma = system: MALME-3M melanoma
M14 melanoma = system: M14 melanoma
HCT-116 colon = system: HCT-116 colon
HCC-2998 colon = system: HCC-2998 colon
BT-549 breast = system: BT-549 breast
HT29 colon = system: HT29 colon
IGROV1 ovarian = system: IGROV1 ovarian
DU-145 prostate = system: DU-145 prostate
KM12 colon = system: KM12 colon
SF-268 CNS = system: SF-268 CNS
MOLT-4 leukemia = system: MOLT-4 leukemia
786-0 renal = system: 786-0 renal
OVCAR-4 ovarian = system: OVCAR-4 ovarian
OVCAR-5 ovarian = system: OVCAR-5 ovarian
EKVX NSCLC = system: EKVX NSCLC
NCI/ADR-RES ovarian = system: NCI/ADR-RES ovarian
SK-MEL-28 melanoma = system: SK-MEL-28 melanoma
NCI-H460 lung = system: NCI-H460 lung
LOX IMVI melanoma = system: LOX IMVI melanoma
CAKI-1 renal = system: CAKI-1 renal
ACHN renal = system: ACHN renal
SF-295 CNS = system: SF-295 CNS
NCI-H23 lung = system: NCI-H23 lung
SNB-19 CNS = system: SNB-19 CNS
NCI-H226 lung = system: NCI-H226 lung
MDA-MB-231 breast = system: MDA-MB-231 breast
SK-OV-3 ovarian = system: SK-OV-3 ovarian
SK-MEL-2 melanoma = system: SK-MEL-2 melanoma
HCT-15 colon = system: HCT-15 colon
T-47D breast = system: T-47D breast
UACC-257 melanoma = system: UACC-257 melanoma
A549 NSCLC = system: A549 NSCLC
SW-620 colon = system: SW-620 colon
HOP-62 NSCLC = system: HOP-62 NSCLC
RXF 393 renal = system: RXF 393 renal

O=C1CSC(c2ccc(Cl)cc2)N1c1ccc(Oc2ccc(Cl)cc2)c(Cl)c1 (stereo unspecified)
TGI (UACC-62 melanoma): 28.8 µM | TGI (U251 CNS): 36.2 µM | TGI (NCI-H522 lung): 23.3 µM | TGI (MCF7 breast): 44.1 µM | TGI (HL-60(TB) leukemia): 39 µM | TGI (SN12C renal): 38.6 µM | TGI (OVCAR-8 ovarian): 35.4 µM | TGI (SR leukemia): 41 µM | TGI (UO-31 renal): 21 µM | TGI (HOP-92 NSCLC): 30.3 µM | TGI (SK-MEL-5 melanoma): 32.4 µM | TGI (CCRF-CEM leukemia): 30.6 µM | TGI (MDA-N): 30.4 µM | TGI (SNB-75 CNS): 24.7 µM | TGI (TK-10 renal): 33.2 µM | TGI (RPMI-8226 leukemia): 63.8 µM | TGI (SF-539 CNS): 30.4 µM | TGI (HS 578T breast): 27.5 µM | TGI (COLO 205 colon): 34.3 µM | TGI (MDA-MB-435): 39 µM | TGI (K-562 leukemia): > 100 µM | TGI (PC-3 prostate): 31.3 µM | TGI (OVCAR-3 ovarian): 29 µM | TGI (MALME-3M melanoma): 21.9 µM | TGI (M14 melanoma): 33.3 µM | TGI (HCT-116 colon): 29.8 µM | TGI (HCC-2998 colon): 33.4 µM | TGI (BT-549 breast): 29 µM | TGI (HT29 colon): 36.3 µM | TGI (IGROV1 ovarian): 31.2 µM | TGI (DU-145 prostate): 27.2 µM | TGI (KM12 colon): 29.4 µM | TGI (SF-268 CNS): 24 µM | TGI (MOLT-4 leukemia): 45 µM | TGI (786-0 renal): 30.5 µM | TGI (OVCAR-4 ovarian): 28.1 µM | TGI (OVCAR-5 ovarian): 29.6 µM | TGI (EKVX NSCLC): 27.2 µM | TGI (NCI/ADR-RES ovarian): 35.3 µM | TGI (SK-MEL-28 melanoma): 35.4 µM | TGI (NCI-H460 lung): 35.5 µM | TGI (LOX IMVI melanoma): 30.7 µM | TGI (CAKI-1 renal): 26 µM | TGI (ACHN renal): 31.2 µM | TGI (SF-295 CNS): 30.8 µM | TGI (NCI-H23 lung): 31.4 µM | TGI (SNB-19 CNS): 30.2 µM | TGI (NCI-H226 lung): 36.5 µM | TGI (MDA-MB-231 breast): 30.7 µM | TGI (SK-OV-3 ovarian): 31.9 µM | TGI (SK-MEL-2 melanoma): 33.9 µM | TGI (HCT-15 colon): 29.5 µM | TGI (T-47D breast): 24.9 µM | TGI (UACC-257 melanoma): 33.2 µM | TGI (A549 NSCLC): 34.5 µM | TGI (SW-620 colon): 45 µM | TGI (HOP-62 NSCLC): 41.9 µM

COc1cc2c(c3oc4c(O)cccc4c(=O)c13)CC(C(C)(O)CO)O2 (stereo unspecified)
TGI (UACC-62 melanoma): > 100 µM | TGI (U251 CNS): > 100 µM | TGI (NCI-H522 lung): > 100 µM | TGI (MCF7 breast): 70.8 µM | TGI (HL-60(TB) leukemia): > 100 µM | TGI (SN12C renal): > 100 µM | TGI (OVCAR-8 ovarian): > 100 µM | TGI (SR leukemia): > 100 µM | TGI (UO-31 renal): > 100 µM | TGI (HOP-92 NSCLC): > 100 µM | TGI (SK-MEL-5 melanoma): > 100 µM | TGI (RXF 393 renal): 79.8 µM | TGI (CCRF-CEM leukemia): > 100 µM | TGI (MDA-N): > 100 µM | TGI (TK-10 renal): > 100 µM | TGI (RPMI-8226 leukemia): > 100 µM | TGI (SF-539 CNS): > 100 µM | TGI (HS 578T breast): > 100 µM | TGI (COLO 205 colon): > 100 µM | TGI (MDA-MB-435): > 100 µM | TGI (K-562 leukemia): > 100 µM | TGI (PC-3 prostate): > 100 µM | TGI (OVCAR-3 ovarian): > 100 µM | TGI (MALME-3M melanoma): > 100 µM | TGI (M14 melanoma): > 100 µM | TGI (HCT-116 colon): > 100 µM | TGI (HCC-2998 colon): > 100 µM | TGI (BT-549 breast): > 100 µM | TGI (HT29 colon): > 100 µM | TGI (IGROV1 ovarian): > 100 µM | TGI (DU-145 prostate): > 100 µM | TGI (SF-268 CNS): > 100 µM | TGI (MOLT-4 leukemia): 62.2 µM | TGI (786-0 renal): > 100 µM | TGI (OVCAR-5 ovarian): > 100 µM | TGI (EKVX NSCLC): > 100 µM | TGI (NCI/ADR-RES ovarian): > 100 µM | TGI (SK-MEL-28 melanoma): > 100 µM | TGI (NCI-H460 lung): > 100 µM | TGI (LOX IMVI melanoma): > 100 µM | TGI (CAKI-1 renal): > 100 µM | TGI (ACHN renal): > 100 µM | TGI (SF-295 CNS): > 100 µM | TGI (NCI-H23 lung): > 100 µM | TGI (SNB-19 CNS): > 100 µM | TGI (NCI-H226 lung): > 100 µM | TGI (MDA-MB-231 breast): > 100 µM | TGI (SK-MEL-2 melanoma): > 100 µM | TGI (HCT-15 colon): > 100 µM | TGI (T-47D breast): > 100 µM | TGI (UACC-257 melanoma): > 100 µM | TGI (A549 NSCLC): > 100 µM | TGI (SW-620 colon): > 100 µM | TGI (HOP-62 NSCLC): > 100 µM

Reference: PubChem BioAssay (NCI)
